From patent publication US8278345B2, “Inhibitors of glutaminyl cyclase” (Probiodrug AG, priority 2006, dated 2012)
pIC50: −log10 of the molar value.

What follows are molecules tested against hQC (Homo sapiens, UniProt Q16769) (assay: Inhibitor assay for glutaminyl cyclase activity (fluorometric, H-Gln-βNA / H-Gln-AMC)). Conditions: compound from preparative synthesis, purified; read-out: IC50 hQC.
Format: biochemical
Outline: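 Ki values came from fitting progress curves to a competitive inhibition model; rapid screens used 4 mM inhibitor with substrate at KM. QC activity was read at 30 °C via auxiliary pyroglutamyl aminopeptidase releasing βNA (0.2 mM H-Gln-βNA, 0.2 M Tris pH 8.0, 20 mM EDTA) or AMC (0.05 M Tris pH 8.0, 5 mM EDTA).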

Sequence of hQC (Q16769 29-361): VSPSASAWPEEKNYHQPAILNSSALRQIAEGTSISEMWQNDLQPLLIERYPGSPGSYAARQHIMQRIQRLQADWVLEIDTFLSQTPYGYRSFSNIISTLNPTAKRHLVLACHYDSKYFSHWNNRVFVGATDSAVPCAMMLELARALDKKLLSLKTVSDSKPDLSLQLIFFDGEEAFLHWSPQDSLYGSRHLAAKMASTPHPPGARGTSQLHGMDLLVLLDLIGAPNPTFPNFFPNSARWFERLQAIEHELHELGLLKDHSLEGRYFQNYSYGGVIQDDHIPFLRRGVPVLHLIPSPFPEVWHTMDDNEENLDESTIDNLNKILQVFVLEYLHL

Row | Compound | pIC50
1 | CCCCCC1=C(O)C(=O)N(CCCn2ccnc2)C1c1ccco1 (stereo not shown) [Compound 213, 5-Furan-2-yl-3-hydroxy-1-(3-imidazol-1-yl-propyl)-4-pentyl-1,5-dihydro-pyrrol-2-one] | 5.88

Same assay, conditions: read-out: IC50

Row | Compound | pIC50
2 | CCCCCC1=C(O)C(=O)N(CCCn2ccnc2)C1c1c(O)ccc2ccccc12 (stereo not shown) [Compound 207, 3-Hydroxy-5-(2-hydroxy-naphthalen-1-yl)-1-(3-imidazol-1-yl-propyl)-4-pentyl-1,5-dihydro-pyrrol-2-one] | 5.51
3 | O=C1C(O)=C(c2ccc(O)cc2)C(Cc2ccccc2)N1CCCn1ccnc1 (stereo not shown) [Compound 169, 5-Benzyl-3-hydroxy-4-(4-hydroxy-phenyl)-1-(3-imidazol-1-yl-propyl)-1,5-dihydro-pyrrol-2-one] | 7.40
4 | CCCC1=C(O)C(=O)N(c2ccc3[nH]cnc3c2)C1c1ccc(C(=O)O)o1 (stereo not shown) [Compound 292, 5-[1-(1H-Benzoimidazol-5-yl)-4-hydroxy-5-oxo-3-propyl-2,5-dihydro-1H-pyrrol-2-yl]-furan-2-carboxylic acid] | 5.00
5 | Cc1ccc2occ(C3C(c4ccccc4)=C(O)C(=O)N3c3ccc4[nH]cnc4c3)c(=O)c2c1 (stereo not shown) [Compound 262, 1-(1H-Benzoimidazol-5-yl)-3-hydroxy-5-(6-methyl-4-oxo-4H-chromen-3-yl)-4-phenyl-1,5-dihydro-pyrrol-2-one] | 6.07
6 | CCC1=C(O)C(=O)N(c2ccc3[nH]cnc3c2)C1c1c(F)ccc(Cl)c1F (stereo not shown) [Compound 290, 1-(1H-Benzoimidazol-5-yl)-5-(3-chloro-2,6-difluoro-phenyl)-4-ethyl-3-hydroxy-1,5-dihydro-pyrrol-2-one] | 5.42
7 | CC(=O)C1=C(O)C(=O)N(c2ccc3[nH]cnc3c2)C1c1ccnc2ccccc12 (stereo not shown) [Compound 318, 4-Acetyl-1-(1H-benzoimidazol-5-yl)-3-hydroxy-5-quinolin-4-yl-1,5-dihydro-pyrrol-2-one] | 5.76
8 | CC1=C(O)C(=O)N(CCCn2ccnc2)C1c1c[nH]c2cc(C)ccc12 (stereo not shown) [Compound 37, 3-Hydroxy-1-(3-imidazol-1-yl-propyl)-4-methyl-5-(6-methyl-1H-indol-3-yl)-1,5-dihydro-pyrrol-2-one] | 6.40
9 | CC1=C(O)C(=O)N(CCCn2ccnc2)C1c1ccc(CO)o1 (stereo not shown) [Compound 32, 3-Hydroxy-5-(5-hydroxymethyl-furan-2-yl)-1-(3-imidazol-1-yl-propyl)-4-methyl-1,5-dihydro-pyrrol-2-one] | 5.89

The remaining molecules from weak to strong by pIC50, led by results:

Row | pIC50 | Compound
10 | 5.02 | CC(=O)C1=C(O)C(=O)N(c2ccc3[nH]cnc3c2)C1C1CC=CCC1 (stereo not shown) [Compound 375, 4-Acetyl-1-(1H-benzoimidazol-5-yl)-5-cyclohex-3-enyl-3-hydroxy-1,5-dihydro-pyrrol-2-one]
11 | 5.13 | Cc1ccc2c(C3C(C(=O)C4CC4)=C(O)C(=O)N3c3ccc4[nH]cnc4c3)c[nH]c2c1 (stereo not shown) [Compound 453, 1-(1H-Benzoimidazol-5-yl)-4-cyclopropanecarbonyl-3-hydroxy-5-(6-methyl-1H-indol-3-yl)-1,5-dihydro-pyrrol-2-one]
12 | 5.24 | CC(C)/C=C/C1C(c2cccc(O)c2)=C(O)C(=O)N1CCCn1ccnc1 (stereo not shown) [Compound 10, 3-Hydroxy-4-(3-hydroxy-phenyl)-1-(3-imidazol-1-yl-propyl)-5-(3-methyl-but-1-enyl)-1,5-dihydro-pyrrol-2-one]
13 | 5.89 | O=C1C(O)=C(c2cccc(O)c2)C(c2ccc3[nH]ccc3c2)N1CCCn1ccnc1 (stereo not shown) [Compound 12, 3-Hydroxy-4-(3-hydroxy-phenyl)-1-(3-imidazol-1-yl-propyl)-5-(1H-indol-5-yl)-1,5-dihydro-pyrrol-2-one]
14 | 6.24 | O=C1C(O)=C(c2c[nH]c3ccccc23)C(c2ccc(O)c(Br)c2)N1c1ccc2[nH]cnc2c1 (stereo not shown) [Compound 438, 1-(1H-Benzoimidazol-5-yl)-5-(3-bromo-4-hydroxy-phenyl)-3-hydroxy-4-(1H-indol-3-yl)-1,5-dihydro-pyrrol-2-one]
15 | 6.40 | CCC1=C(O)C(=O)N(CCCn2ccnc2)C1c1ccc(C)c(C)c1 (stereo not shown) [Compound 231, 5-(3,4-Dimethyl-phenyl)-4-ethyl-3-hydroxy-1-(3-imidazol-1-yl-propyl)-1,5-dihydro-pyrrol-2-one]
16 | 7.40 | CCCCCC1=C(O)C(=O)N(CCCn2ccnc2)C1c1ccco1 (stereo not shown) [Compound 213, 5-Furan-2-yl-3-hydroxy-1-(3-imidazol-1-yl-propyl)-4-pentyl-1,5-dihydro-pyrrol-2-one]
